Experimental data: ChEMBL document CHEMBL1201862, “PubChem BioAssay data set” (2004)
The source made the active and inactive calls.

Target: T1, RNA-binding protein pos-1 (Caenorhabditis elegans, UniProt G5EF15)
T1 sequence (G5EF15 whole entry): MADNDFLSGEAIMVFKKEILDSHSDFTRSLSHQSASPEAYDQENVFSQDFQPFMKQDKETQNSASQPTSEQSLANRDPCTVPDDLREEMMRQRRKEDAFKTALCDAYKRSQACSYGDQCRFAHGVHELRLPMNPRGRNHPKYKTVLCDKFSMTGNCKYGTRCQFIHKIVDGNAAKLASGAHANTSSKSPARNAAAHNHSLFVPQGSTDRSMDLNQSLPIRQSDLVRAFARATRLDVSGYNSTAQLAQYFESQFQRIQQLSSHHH
Experiment: inhibitors of POS-1/mex-3 RNA binding, dose response, biochemical, fluorescence polarization (AID 1964);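 further: purified POS-1 fused to maltose binding protein made in E. coli; potency of compounds blocking POS-1 binding to fluorescent RNA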

SMILES | EC50
CCCCC1=CC2=C(c3ccco3)C(=O)C(C)(OC(=O)c3ccc(OC)cc3)C(=O)C2=CN1CCN1CCOCC1 (centres undefined) | 95.7 µM (active)
CSC(=Nc1cccc(Cl)c1C)NS(=O)(=O)c1cccs1 | > 300 µM (not active)

Tested on: not listed separately
Experiment: inhibitors of SNCA 5'UTR-driven reporter translation, confirmation, H4 neuroglioma cells, luminescence (AID 1988)
Format: functional, cell-based

SMILES | EC50
O=C(CN1CCOCC1)Nc1cccc(Cl)c1Cl | > 120 µM (not active)

Target: Cytochrome P450 2D6 (Homo sapiens, UniProt P10635);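 further: CYP2D6 member of a cytochrome P450 panel assay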
Sequence (P10635 whole entry): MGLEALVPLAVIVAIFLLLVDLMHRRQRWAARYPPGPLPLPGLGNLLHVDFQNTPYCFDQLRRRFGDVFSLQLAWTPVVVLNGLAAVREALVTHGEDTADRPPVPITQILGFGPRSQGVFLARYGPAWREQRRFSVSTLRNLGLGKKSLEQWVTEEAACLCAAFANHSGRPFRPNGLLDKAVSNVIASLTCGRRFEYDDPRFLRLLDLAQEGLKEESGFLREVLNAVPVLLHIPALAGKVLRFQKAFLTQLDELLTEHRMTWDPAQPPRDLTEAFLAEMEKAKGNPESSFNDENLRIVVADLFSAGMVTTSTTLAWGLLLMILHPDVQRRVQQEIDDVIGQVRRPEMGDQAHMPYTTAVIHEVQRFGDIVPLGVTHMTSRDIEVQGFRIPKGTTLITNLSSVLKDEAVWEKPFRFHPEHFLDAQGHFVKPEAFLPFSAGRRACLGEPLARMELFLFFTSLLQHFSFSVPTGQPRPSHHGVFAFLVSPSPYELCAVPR

SMILES | AC50
O=C(c1cccc(F)c1)N1CCC[C@@]2(CCN(C(c3ccccc3)c3ccccc3)C2)C1 | 12.6 µM (inconclusive)
Cc1cccc(C)c1NC(=O)/C(C#N)=C/c1cccs1 | 6.31 µM (inconclusive)
CCn1c(SCc2cccc(C)c2)nnc1-c1ccccc1 | 15.8 µM (inconclusive)
COc1ccccc1-c1cncnc1NCc1cccnc1 | 39.8 µM (inconclusive)
CCC(C)C(NC(=O)OCc1ccccc1)C(=O)OCN1C(=O)c2ccccc2C1=O (centres undefined) | 0.631 µM (inconclusive)
C[N+]1(C)CCc2cc3c(cc2[C@@H]1[C@@H]1OC(=O)c2c1ccc1c2OCO1)OCO3 | 31.6 µM (inconclusive)
COc1ccc(NC(=O)CSc2nc(C)c3c(c2C#N)CCCC3)cc1 | 2.24 µM (inconclusive)
C=CCNC(=O)/C(=C\C=C\c1ccccc1)NC(=O)c1ccc(OCCCC)cc1 | 4.47 µM (inconclusive)
Cc1noc(C)c1-c1ccc2ncnc(N(C)Cc3ccco3)c2c1 | 20 µM (inconclusive)
C[N+]1(NCC[N@@+]2(C)CCc3ccccc3C2)CCCCC1 | 1.58 µM (inconclusive)
Cc1ccc(S(=O)(=O)N[C@@H](CCCCN)C(=O)CCl)cc1 | 25.1 µM (inconclusive)
CCC1(C)CC(CCNS(=O)(=O)c2ccc(C)cc2)(c2ccc(C)cc2)CCO1 (centres undefined) | 28.2 µM (inconclusive)
CCCC[C@@H]1C[C@H]1C(NC(=O)c1ccco1)c1ccc(C(=O)OC)cc1 (some centres undefined) | 25.1 µM (inconclusive)
CN/C(=N/C#N)NCCSC[C@H]1N=CN=C1C | 10 µM (inconclusive)
O=C(c1ccco1)N1CCC2(CC1)CCN(c1ccccc1)CC2 | 25.1 µM (inconclusive)
COc1cc(OC)cc(C(=O)NC(=S)NCCc2ccccc2)c1 | 10 µM (inconclusive)
CC(=O)Nc1c(S(=O)(=O)c2ccccc2)c2nc3ccccc3nc2n1Cc1ccccc1 | 25.1 µM (inconclusive)
O=C1NCC2=C1C(c1ccc(Br)cc1)Nc1ccccc1N2 (centres undefined) | 2.24 µM (inconclusive)

Target: Cytochrome P450 2C9 (Homo sapiens, UniProt P11712)
Sequence (P11712 whole entry): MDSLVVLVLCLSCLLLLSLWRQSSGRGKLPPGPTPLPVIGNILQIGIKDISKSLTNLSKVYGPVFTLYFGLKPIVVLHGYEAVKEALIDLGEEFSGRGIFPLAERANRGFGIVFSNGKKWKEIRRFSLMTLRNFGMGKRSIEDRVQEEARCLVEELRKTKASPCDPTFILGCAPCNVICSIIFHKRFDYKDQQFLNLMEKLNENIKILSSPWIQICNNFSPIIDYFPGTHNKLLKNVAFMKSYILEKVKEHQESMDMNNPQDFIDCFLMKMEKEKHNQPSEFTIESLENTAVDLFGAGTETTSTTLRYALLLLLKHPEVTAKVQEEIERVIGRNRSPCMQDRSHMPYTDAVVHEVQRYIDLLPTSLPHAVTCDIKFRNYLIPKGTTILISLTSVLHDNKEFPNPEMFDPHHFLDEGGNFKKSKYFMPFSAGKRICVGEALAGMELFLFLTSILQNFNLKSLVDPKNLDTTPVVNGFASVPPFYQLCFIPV

SMILES | AC50
CCn1c(SCc2cccc(C)c2)nnc1-c1ccccc1 | 35.5 µM (inconclusive)
COc1ccc(NC(=O)CSc2nc(C)c3c(c2C#N)CCCC3)cc1 | 8.91 µM (inconclusive)

Target: T2, Zinc finger protein mex-5 (Caenorhabditis elegans, UniProt Q9XUB2)
T2 sequence (Q9XUB2 whole entry): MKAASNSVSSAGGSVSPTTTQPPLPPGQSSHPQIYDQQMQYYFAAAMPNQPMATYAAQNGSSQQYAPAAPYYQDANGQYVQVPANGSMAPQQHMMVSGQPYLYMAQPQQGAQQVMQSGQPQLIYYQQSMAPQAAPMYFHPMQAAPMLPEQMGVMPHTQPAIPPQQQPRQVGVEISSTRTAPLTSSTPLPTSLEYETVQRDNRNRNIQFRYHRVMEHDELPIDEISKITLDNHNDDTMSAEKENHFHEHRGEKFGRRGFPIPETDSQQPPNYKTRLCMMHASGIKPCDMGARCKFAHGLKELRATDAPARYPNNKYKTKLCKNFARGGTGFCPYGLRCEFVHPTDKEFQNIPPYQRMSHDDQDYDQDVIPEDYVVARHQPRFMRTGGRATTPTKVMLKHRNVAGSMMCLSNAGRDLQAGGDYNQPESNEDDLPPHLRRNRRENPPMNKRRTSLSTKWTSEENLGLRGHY
Experiment: MEX-5/TCR-2 RNA interaction inhibitors, dose response, biochemical, C. elegans, fluorescence polarization (AID 1960)

SMILES | EC50
CCCCC1=CC2=C(c3ccco3)C(=O)C(C)(OC(=O)c3ccc(OC)cc3)C(=O)C2=CN1CCN1CCOCC1 (centres undefined) | 42.2 µM (active)
CSC(=Nc1cccc(Cl)c1C)NS(=O)(=O)c1cccs1 | > 300 µM (not active)

Target: T3, Heat shock factor protein 1 (Mus musculus, UniProt P38532)
T3 sequence (P38532 whole entry): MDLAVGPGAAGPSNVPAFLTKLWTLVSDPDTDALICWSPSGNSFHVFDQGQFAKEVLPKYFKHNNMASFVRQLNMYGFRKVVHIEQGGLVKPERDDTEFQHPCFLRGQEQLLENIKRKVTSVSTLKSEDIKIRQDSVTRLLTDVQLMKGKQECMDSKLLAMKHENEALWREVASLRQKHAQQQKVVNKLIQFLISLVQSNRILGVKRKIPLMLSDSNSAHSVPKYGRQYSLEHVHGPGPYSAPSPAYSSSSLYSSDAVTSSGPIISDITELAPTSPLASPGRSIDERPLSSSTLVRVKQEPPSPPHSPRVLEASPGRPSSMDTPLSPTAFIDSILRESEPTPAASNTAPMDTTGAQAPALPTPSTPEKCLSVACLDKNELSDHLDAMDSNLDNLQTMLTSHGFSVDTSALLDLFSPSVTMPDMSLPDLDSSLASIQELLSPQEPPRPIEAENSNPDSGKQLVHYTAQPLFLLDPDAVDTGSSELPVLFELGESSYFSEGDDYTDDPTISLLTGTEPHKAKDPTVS
Experiment: HSF1 potentiators in luciferase reporter cells, confirmation, cell-based, NIH3T3, luminescence, dose retest (AID 435004);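 further: stress induced by proteasome inhibitor MG132 added 30 min after compound; luciferase reporter driven by HSF1 response element in NIH3T3 cells; actives raise luminescence as potentiators of the MG132 stress response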
Format: functional

SMILES | EC50
O=C1NCC2=C1C(c1ccc(Br)cc1)Nc1ccccc1N2 (centres undefined) | > 260 µM (inactive)

Target: Cytochrome P450 3A4 (Homo sapiens, UniProt P08684);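 further: CYP3A4 tested as one member of a cytochrome P450 panel screen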
Sequence (P08684 whole entry): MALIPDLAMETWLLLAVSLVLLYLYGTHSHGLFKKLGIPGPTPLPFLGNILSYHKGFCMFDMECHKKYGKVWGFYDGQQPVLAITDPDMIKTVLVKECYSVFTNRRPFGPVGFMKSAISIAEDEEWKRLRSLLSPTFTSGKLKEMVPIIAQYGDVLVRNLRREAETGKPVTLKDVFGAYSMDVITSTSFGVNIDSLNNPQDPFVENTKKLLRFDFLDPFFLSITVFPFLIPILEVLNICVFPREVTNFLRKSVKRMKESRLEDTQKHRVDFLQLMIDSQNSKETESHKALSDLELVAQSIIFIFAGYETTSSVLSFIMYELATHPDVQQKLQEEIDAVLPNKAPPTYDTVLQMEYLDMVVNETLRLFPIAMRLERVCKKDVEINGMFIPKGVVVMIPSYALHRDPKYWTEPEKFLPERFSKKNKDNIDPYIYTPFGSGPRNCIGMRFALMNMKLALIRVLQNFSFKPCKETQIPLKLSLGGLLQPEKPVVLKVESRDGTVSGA

SMILES | AC50
CCn1c(SCc2cccc(C)c2)nnc1-c1ccccc1 | 3.16 µM (inconclusive)
O=C1NCC2=C1C(c1ccc(Br)cc1)Nc1ccccc1N2 (centres undefined) | 25.1 µM (inconclusive)

Tested on: not listed separately
Experiment: inhibitors of firefly luciferase expression or activity, dose response, H4 neuroglioma cells, luminescence (AID 1990)
Format: functional, cell-based

SMILES | EC50
O=C(CN1CCOCC1)Nc1cccc(Cl)c1Cl | > 120 µM (not active)
